In general, IC50 refers to the concentration at which inhibition is half-maximal. The inhibition is the change of the read-out against control, counted positive when it falls.

Counter-ions that a name gives are not always drawn.

human RORγt LBD, sequence (P51449 258-518): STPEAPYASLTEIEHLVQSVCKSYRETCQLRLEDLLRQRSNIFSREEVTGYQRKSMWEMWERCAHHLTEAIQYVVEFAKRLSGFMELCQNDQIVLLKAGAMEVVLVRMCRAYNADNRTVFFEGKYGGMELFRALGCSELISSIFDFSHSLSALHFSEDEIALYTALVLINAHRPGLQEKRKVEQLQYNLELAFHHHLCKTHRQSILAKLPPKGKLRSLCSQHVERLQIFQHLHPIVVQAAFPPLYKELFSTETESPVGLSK

The first assay addresses human RORγt LBD (Homo sapiens (Human), UniProt P51449). Nature of the assay: RORγt reporter assay (GAL4-RORγt LBD luciferase, HEK293T cells). Format: cell-based. The note with it: 6 μM, HEK293T cells. An excerpt: A reporter assay was used to test functional activity of RORγt modulatory compounds on transcriptional activation driven by the RORγt LBD. Cells used in the assay were co-transfected with two constructs. The first construct, pBIND-RORγt LBD, contained the wild type human RORγt LBD fused to the DNA binding domain of the GAL4 protein. The second construct, pGL4.31 (Promega Cat no. C935A), contained multiple GAL4 responsive DNA elements upstream of firefly luciferase. […] The mutant construct was called pBIND-RORγt-AF2. […] The pBIND vector contains the GAL4 DNA Binding Domain (GAL4 DBD) and the renilla luciferase gene under control of the SV40 promoter. Renilla luciferase expression serves as a control for transfection efficiency and cell viability.
The reporter assay was performed by transiently transfecting HEK293T cells with 5 μg of pBIND-RORγt LBD or pBIND-RORγt LBD-AF2 and 5 μg pGL4.31 (Promega Cat no. C935A) using Fugene 6 (Invitrogen Cat no. E2691) at a 1:6 ratio of DNA: Fugene 6 in a T-75 flask in which cells were at least 80% confluent. Twenty four hours after bulk transfection, cells were plated into 96-well plates at 50,000 cells/well in phenol-red free DMEM containing 5% Lipid Reduced FCS and Pen/Strep. Six hours after plating, cells were treated with compounds for 24 hours. Media was removed and cells were lysed with 50 μL 1x Glo Lysis Buffer (Promega). Dual Glo Luciferase Reagent (50 μL/well) was then added and firefly luciferase luminescence was read on an Envision after a ten minute incubation. Finally, Stop and Glo reagent (50 μL/well) was added and renilla luciferase luminescence was read on an Envision after a ten minute incubation. To calculate the effect of compounds on RORγt activity, the ratio of firefly to renilla luciferase was determined and plotted against compound concentration. Agonist compounds increase RORγt-driven luciferase expression, and antagonist or inverse agonist compounds decrease luciferase expression.
A general note: Reporter assays use an easily measured gene product as a stand-in for the process of interest.
As to `CCOc1nc2ccc(C(O)(c3ccc(C(F)(F)F)nc3)c3cncn3C)cc2c(Cl)c1Oc1ccc(F)cc1` (single isomer, unassigned) [Example 14b, (4-Chloro-2-ethoxy-3-(4-fluorophenoxy)quinolin-6-yl)(1-methyl-1H-imidazol-5-yl)(6-(trifluoromethyl)pyridin-3-yl)methanol], the “RORγt reporter Assay, % inhibition @ 6 μM” value is on record as 69%.

On to `CCOc1nc2ccc(C(O)(c3ccc(C(F)(F)F)nc3)c3cncn3C)cc2c(C(F)(F)F)c1Oc1ccc(Cl)cc1` (single isomer, unassigned) [Example 25c, (3-(4-Chlorophenoxy)-2-ethoxy-4-(trifluoromethyl)quinolin-6-yl)(1-methyl-1H-imidazol-5-yl)(6-(trifluoromethyl)pyridin-3-yl)methanol], for which the “RORγt reporter Assay, % inhibition @ 6 μM” value was 67%.

With `COc1nc2ccc(C(O)(c3ccc(Cl)cc3)c3cncn3C)cc2c(Cl)c1Oc1ccccc1` (single isomer, unassigned) [Example 15c, (4-Chloro-2-methoxy-3-phenoxyquinolin-6-yl)(4-chlorophenyl)(1-methyl-1H-imidazol-5-yl)methanol], the “RORγt reporter Assay, % inhibition @ 6 μM” value came to 82%.

With `CCN(CC)c1nc2ccc(C(O)(c3ccc(Cl)cc3)c3cncn3C)cc2c(Cl)c1Oc1ccccc1` (single isomer, unassigned) [Example 3b, (4-Chloro-2-(diethylamino)-3-phenoxyquinolin-6-yl)(4-chlorophenyl)(1-methyl-1H-imidazol-5-yl)methanol], the “RORγt reporter Assay, % inhibition @ 6 μM” value came to 77%.

For the compound `CCOc1nc2ccc(C(O)(c3ccc(C(F)(F)F)nc3)c3cncn3C)cc2c(Cl)c1Oc1ccc(F)cc1` (single isomer, unassigned) [Example 14c, (4-Chloro-2-ethoxy-3-(4-fluorophenoxy)quinolin-6-yl)(1-methyl-1H-imidazol-5-yl)(6-(trifluoromethyl)pyridin-3-yl)methanol], the “RORγt reporter Assay, % inhibition @ 6 μM” value was 18%.

The assay is the same for the next values; noted with them: HEK293T cells, 24 hours compound treatment.
Regarding `Cn1cncc1C(O)(c1ccc(C(F)(F)F)nc1)c1ccc2nc(C#N)c(Oc3ccccc3)c(C#N)c2c1` (centres unmarked) [Example 22a, 6-(Hydroxy(1-methyl-1H-imidazol-5-yl)(6-(trifluoromethyl)pyridin-3-yl)methyl)-3-phenoxyquinoline-2,4-dicarbonitrile], the 50% inhibitory concentration (IC50) is ~6 µM.

Still in this assay, the particulars now being: HEK-293T, read-out: RORγt reporter Assay, % inhibition @ 6 μM, 6 μM, HEK293T cells.
As to `CCN(CC)c1nc2ccc(C(O)(c3ccc(C(F)(F)F)nc3)c3cncn3C)cc2c(Cl)c1Oc1ccc(F)cc1` (centres unmarked) [Example 9a], the inhibition at 6 µM was found to be 97%.

Regarding `CCOc1nc2ccc(C(O)(c3ccc(C(F)(F)F)nc3)c3cncn3C)cc2c(C(F)(F)F)c1Oc1ccc(Cl)cc1` (centres unmarked) [Example 25a, (3-(4-Chlorophenoxy)-2-ethoxy-4-(trifluoromethyl)quinolin-6-yl)(1-methyl-1H-imidazol-5-yl)(6-(trifluoromethyl)pyridin-3-yl)methanol], the inhibition at 6 µM was found to be 75%.

`COCCN(C)c1nc2ccc(C(O)(c3ccc(C(F)(F)F)nc3)c3cncn3C)cc2c(Cl)c1Oc1ccccc1` (centres unmarked) [Example 34, (4-Chloro-2-((2-methoxyethyl)(methyl)amino)-3-phenxoyquinolin-6-yl)(1-methyl-1H-imidazol-5-yl)(6-(trifluoromethyl)pyridin-3-yl)methanol.TFA]: the inhibition at 6 µM worked out at 95%.

On to `Cn1cncc1C(O)(c1ccc(C(F)(F)F)nc1)c1ccc2nc(C#N)c(Oc3ccc(Cl)cc3)c(C(F)(F)F)c2c1` (centres unmarked) [Example 24, 3-(4-Chlorophenoxy)-6-(hydroxy(1-methyl-1H-imidazol-5-yl)(6-(trifluoromethyl)pyridin-3-yl)methyl)-4-(trifluoromethyl)quinoline-2-carbonitrile], for which the inhibition at 6 µM is 55%.

As to `CCN(CC)c1nc2ccc(C(O)(c3ccc(Cl)cc3)c3cncn3C)cc2c(C(F)(F)F)c1Oc1ccccc1` (centres unmarked) [Example 29, (4-Chlorophenyl)(2-(diethylamino)-3-phenoxy-4-(trifluoromethyl)quinolin-6-yl)(1-methyl-1H-imidazol-5-yl)methanol.TFA], the inhibition at 6 µM was 93%.

Take `COc1ccc(C(O)(c2ccc3nc(Cl)c(Oc4ccccc4)c(Cl)c3c2)c2cncn2C)cn1` (centres unmarked) [Example 4, (2,4-Dichloro-3-phenoxyquinolin-6-yl)(6-methoxypyridin-3-yl)(1-methyl-1H-imidazol-5-yl)methanol]: the inhibition at 6 µM came out at 92%.

As to `COc1c(Oc2ccccc2)c(Cl)nc2ccc(C(O)(c3ccc(Cl)cc3)c3cncn3C)cc12` (centres unmarked) [Example 18, (2-Chloro-4-methoxy-3-phenoxyquinolin-6-yl)(4-chlorophenyl)(1-methyl-1H-imidazol-5-yl)methanol], the inhibition at 6 µM came to 88%.

As to `Cn1cncc1C(O)(c1ccc(C(F)(F)F)nc1)c1ccc2nc(C#N)c(Oc3ccccc3)c(Cl)c2c1` (centres unmarked) [Example 21, 4-Chloro-6-(hydroxy(1-methyl-1H-imidazol-5-yl)(6-(trifluoromethyl)pyridin-3-yl)methyl)-3-phenoxyquinoline-2-carbonitrile.TFA], the inhibition at 6 µM came to 80%.

Turning to `COc1nc2ccc(C(O)(c3ccc(Cl)cc3)c3cncn3C)cc2c(Cl)c1Oc1ccccc1` (centres unmarked) [Example 15a, (4-Chloro-2-methoxy-3-phenoxyquinolin-6-yl)(4-chlorophenyl)(1-methyl-1H-imidazol-5-yl)methanol], the inhibition at 6 µM was found to be 83%.

On to `Cn1cncc1C(O)(c1ccc(C(F)(F)F)nc1)c1ccc2nc(C#N)c(Oc3ccccc3)c(C#N)c2c1` (centres unmarked) [Example 22a, 6-(Hydroxy(1-methyl-1H-imidazol-5-yl)(6-(trifluoromethyl)pyridin-3-yl)methyl)-3-phenoxyquinoline-2,4-dicarbonitrile], for which the inhibition at 6 µM stood at 55%.

For the compound `Cn1cncc1C(O)(c1ccc(C(F)(F)F)nc1)c1ccc2nc(Cl)c(Oc3ccc(Cl)cc3)c(C(F)(F)F)c2c1` (centres unmarked) [Example 46, (2-Chloro-3-(4-chlorophenoxy)-4-(trifluoromethyl)quinolin-6-yl)(1-methyl-1H-imidazol-5-yl)(6-(trifluoromethyl)pyridin-3-yl)methanol], the inhibition at 6 µM amounted to 39%.

As to `COc1nc2ccc(C(O)(c3ccc(Cl)cc3)c3cncn3C)cc2c(Cl)c1Oc1ccccc1` (single isomer, unassigned) [Example 15b, (4-Chloro-2-methoxy-3-phenoxyquinolin-6-yl)(4-chlorophenyl)(1-methyl-1H-imidazol-5-yl)methanol], the inhibition at 6 µM came out at 86%.

For `CCN(CC)c1nc2ccc(C(O)(c3ccc(Cl)cc3)c3cncn3C)cc2c(Cl)c1N(C(=O)OC(C)(C)C)c1ccccc1` (centres unmarked) [Example 44, tert-Butyl (4-chloro-6-((4-chlorophenyl)(hydroxyl)(1-methyl-1H-imidazol-5-yl)methyl)-2-(diethylamino)quinolin-3-yl)(phenyl)carbamate.TFA], the inhibition at 6 µM came to 62%.

For the compound `Cn1cncc1C(O)(c1ccc(Cl)cc1)c1ccc2nc(C#N)c(Oc3ccc(F)cc3)c(Cl)c2c1` (centres unmarked) [Example 23, 4-Chloro-6-((4-chlorophenyl)(hydroxy)(1-methyl-1H-imidazol-5-yl)methyl)-3-(4-fluorophenoxy)quinoline-2-carbonitrile.TFA], the inhibition at 6 µM was 80%.

For `CCOc1nc2ccc(C(O)(c3ccc(C(F)(F)F)nc3)c3cncn3C)cc2c(Cl)c1Oc1ccc(F)cc1` (centres unmarked) [Example 14a, (4-Chloro-2-ethoxy-3-(4-fluorophenoxy)quinolin-6-yl)(1-methyl-1H-imidazol-5-yl)(6-(trifluoromethyl)pyridin-3-yl)methanol], the inhibition at 6 µM came out at 55%.

In the case of `CCOc1nc2ccc(C(O)(c3ccc(OC)nc3)c3cncn3C)cc2c(Cl)c1Oc1ccccc1` (centres unmarked) [Example 10a, (4-Chloro-2-ethoxy-3-phenoxyquinolin-6-yl)(6-methoxypyridin-3-yl)(1-methyl-1H-imidazol-5-yl)methanol.TFA], the inhibition at 6 µM was found to be 95%.

Take `Cn1cncc1C(O)(c1ccc(Cl)cc1)c1ccc2nc(N3CCC3)c(Oc3ccc(C#N)cc3)c(Cl)c2c1` (centres unmarked) [Example 32a, 4-((2-(Azetidin-1-yl)-4-chloro-6-((4-chlorophenyl)(hydroxyl)(1-methyl-1H-imidazol-5-yl)methyl)quinolin-3-yl)oxy)benzonitrile]: the inhibition at 6 µM was determined as 102%.
